This assay has as its target T1, human neurotrypsin (Homo sapiens, UniProt P56730).
T1 sequence (P56730 21-875): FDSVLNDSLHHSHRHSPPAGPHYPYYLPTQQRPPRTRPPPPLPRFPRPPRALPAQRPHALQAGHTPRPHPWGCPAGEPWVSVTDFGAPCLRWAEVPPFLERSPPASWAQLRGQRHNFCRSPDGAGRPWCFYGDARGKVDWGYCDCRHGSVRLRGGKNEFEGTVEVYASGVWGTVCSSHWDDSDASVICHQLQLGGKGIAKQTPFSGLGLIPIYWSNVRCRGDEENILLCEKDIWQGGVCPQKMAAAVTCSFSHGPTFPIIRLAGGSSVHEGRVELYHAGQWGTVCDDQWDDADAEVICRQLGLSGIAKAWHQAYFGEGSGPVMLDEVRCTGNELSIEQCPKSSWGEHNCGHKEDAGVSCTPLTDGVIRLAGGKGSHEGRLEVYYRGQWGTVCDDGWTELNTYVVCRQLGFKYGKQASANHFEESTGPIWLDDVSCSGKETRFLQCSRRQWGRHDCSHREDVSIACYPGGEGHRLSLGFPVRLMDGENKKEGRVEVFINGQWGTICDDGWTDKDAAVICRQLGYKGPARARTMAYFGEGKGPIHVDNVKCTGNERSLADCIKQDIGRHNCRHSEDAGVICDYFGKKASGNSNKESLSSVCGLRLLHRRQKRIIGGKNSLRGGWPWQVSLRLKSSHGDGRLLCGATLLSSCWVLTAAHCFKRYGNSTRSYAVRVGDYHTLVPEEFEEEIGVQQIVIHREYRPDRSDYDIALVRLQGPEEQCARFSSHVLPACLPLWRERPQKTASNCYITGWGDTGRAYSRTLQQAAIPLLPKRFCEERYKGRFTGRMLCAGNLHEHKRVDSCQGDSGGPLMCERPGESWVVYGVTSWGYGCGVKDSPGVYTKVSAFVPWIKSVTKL
Nature of the assay: Determination of IC50 for human neurotrypsin. Format: biochemical. The settings on record: human neurotrypsin; method of WO 2006/1103261; read-out: Neurotrypsin IC50. Here is the method: Assessment of the potency of compounds of examples 1-311 in inhibiting the enzymatic activity of human neurotrypsin was performed according to the method described in patent application WO 2006/1103261
What is called IC50 is the midpoint of a concentration-inhibition curve. `O=C(Nc1ccccc1)c1ccc(NC(=O)c2ccc(-c3nc4cc(Cl)c(Cl)cc4[nH]3)cc2)c(C(=O)O)c1` [Example 138]: the IC50 was 6.6 µM. Next, `O=C(O)c1cc(C(=O)N2CCC(Cc3ccc(F)cc3)CC2)ccc1NC(=O)c1sc2ccccc2c1Cl` [Example 114]: 3 µM; `CCOC(=O)CN(C(=O)c1ccc(C(=O)O)c(NC(=O)c2sc3ccccc3c2Cl)c1)c1ccc(Cl)cc1` [Example 156, 2-(3-Chlorobenzo[b]-thiophene-2-carboxamido)-4-(N-(4-chlorophenyl)-N-(ethoxycarbonylmethyl)-carbamoyl)benzoic acid]: 4.7 µM. Take `O=C(Nc1ccc(Cl)cc1)c1ccc(NC(=O)c2sc3ccccc3c2Cl)c(C(=O)O)c1` [Example 26, 2-(3-Chlorobenzo[b]-thiophene-2-carboxamido)-5-(4-chlorophenylcarbamoyl)-benzoic acid]: the IC50 came out at 3.2 µM. On to `O=C(Nc1ncc(Cl)s1)c1ccc(C(=O)O)c(NC(=O)c2ccc(-c3ccccc3)s2)c1` [Example 62], for which the IC50 was 7.5 µM. As for `O=C(O)c1ccc(NC(=O)N2CCC(c3ccccc3)CC2)cc1NC(=O)c1sc2ccccc2c1Cl` [Example 279], the IC50 amounted to 5.4 µM.

Regarding `O=C(Nc1ccc(Cl)cc1)c1ccc(-c2nn[nH]n2)c(NC(=O)c2sc3ccccc3c2Cl)c1` [Example 229, 3-Chloro-benzo[b]thiophene-2-carboxylic acid [5-(4-chloro-phenyl-carbamoyl)-2-(2H-tetrazol-5-yl)phenyl]amide], the IC50 was determined as 3.7 µM. In the case of `O=C(Nc1ccc(Cl)cc1)c1ccc(NC(=O)c2ccc(-c3cccs3)cc2O)c(C(=O)O)c1` [Example 120, 5-(4-Chlorophenyl-carbamoyl)-2-(2-hydroxy-4-(thiophen-2-yl)benzamido)-benzoic acid], the IC50 was 4.1 µM. Take `O=C(Nc1ncc(Cl)s1)c1ccc(C(=O)O)c(NC(=O)c2ccc(-c3ccc(F)cc3)s2)c1` [Example 27, 4-(5-Chlorothiazol-2-yl-carbamoyl)-2-(5-(4-fluorophenyl)thiophene-2-carboxamido)benzoic acid]: the IC50 was determined as 5 µM. For the compound `O=C(Nc1ccccc1O)c1ccc(C(=O)O)c(NC(=O)c2sc3ccccc3c2Cl)c1` [Example 82], the half-maximal inhibitory concentration (IC50) was determined as 17.8 µM. With `O=C(O)c1ccc(NC2CCCc3ccccc32)cc1NC(=O)c1sc2ccccc2c1Cl` (stereo not shown) [Example 291], the IC50 worked out at 4 µM. Consider `CC(C)CN(CC(C)C)C(=O)c1ccc(NC(=O)c2ccc(-c3nc4cc(Cl)c(Cl)cc4[nH]3)cc2)c(C(=O)O)c1` [Example 131], for which the IC50 was found to be 0.7 µM. Turning to `O=C(O)c1ccc(C(=O)N2CCCc3ccccc32)cc1NC(=O)c1sc2ccccc2c1Cl` [Example 97], the IC50 is 10.3 µM. As to `O=C(O)c1ccc(C(=O)N2CCC(O)(c3ccc(Cl)c(C(F)(F)F)c3)CC2)cc1NC(=O)c1sc2ccccc2c1Cl` [Example 151, 4-(4-(4-Chloro-3-(trifluoro-methyl)phenyl)-4-hydroxy-piperidine-1-carbonyl)-2-(3-chlorobenzo[b]thiophene-2-carboxamido)benzoic acid], the IC50 was 2.7 µM. Regarding `O=C(O)c1ccc(/C=C/Cc2ccccc2)cc1NC(=O)c1sc2ccccc2c1Cl` [Example 246], the concentration for half-maximal inhibition (IC50) came to 98.4 µM.

Take `O=C(Nc1ccc(Cl)cc1)c1ccc(C(=O)O)c(NC(=O)c2ccc(-c3nc4cc(Cl)c(Cl)cc4[nH]3)cc2)c1` [Example 40, 4-(4-Chlorophenyl-carbamoyl)-2-(4-(5,6-di-chloro-1H-benzo[d]imidazol-2-yl)benzamido)benzoic acid]: the IC50 worked out at 0.8 µM.

On to `O=C(NCc1ccc(-c2ccc(Cl)cc2)s1)c1ccc(C(=O)O)c(NC(=O)c2sc3ccccc3c2Cl)c1` [Example 91, 2-(3-Chlorobenzo[b]-thiophene-2-carboxamido)-4-((5-(4-chlorophenyl)thiophen-2-ylmethyl)carbamoyl)-benzoic acid], for which the IC50 turned out to be 10 µM. Next, `O=C(O)c1cc(N2CC(c3ccc(Cl)cc3)CC2=O)ccc1NC(=O)c1sc2ccccc2c1Cl` (stereo not shown) [Example 287]: 4.3 µM; `COc1ccc(C2CCN(C(=O)c3ccc(NC(=O)c4sc5ccccc5c4Cl)c(C(=O)O)c3)CC2)cc1` [Example 116]: 2.4 µM; `O=C(Nc1ccc(C(=O)N2CCC(Cc3ccccc3)CC2)cc1C(=O)O)c1cc2ccc(Cl)cc2s1` [Example 158, 5-(4-Benzylpiperidine-1-carbonyl)-2-(6-chloro-benzo[b]thiophene-2-carboxamido)benzoic acid]: 3.8 µM. Turning to `O=C(O)c1ccc(-c2cn(-c3ccc(Cl)c(C(F)(F)F)c3)nn2)cc1NC(=O)c1sc2ccccc2c1Cl` [Example 261], the IC50 was 5.5 µM. To `O=C(Nc1ccc(Cl)cc1)c1ccc(C(=O)O)c(NC(=O)c2sc3ccccc3c2Cl)c1` [Example 1, 2-(3-Chlorobenzo[b]thiophene-2-carboxamido)-4-(4-chlorophenylcarbamoyl)-benzoic acid] belongs 8.5 µM.

As for `CC(C)(C)c1ccc(NC(=O)c2ccc(C(=O)O)c(NC(=O)c3sc4ccccc4c3Cl)c2)cc1` [Example 69], the IC50 came to 3.1 µM.

Regarding `O=C(Nc1ccc(C(=O)N2CCC(Oc3ccccc3)CC2)cc1C(=O)O)c1cc2ccc(Cl)cc2s1` [Example 160, 2-(6-Chlorobenzo[b]thiophene-2-carboxamido)-5-(4-phenoxypiperidine-1-carbonyl)benzoic acid], the IC50 worked out at 3.9 µM. Turning to `O=C(O)COc1cc(C(=O)O)c(NC(=O)c2sc3ccccc3c2Cl)cc1C(=O)Nc1ccc(Cl)cc1` [Example 304], the IC50 amounted to 2.5 µM. `CC(NC(=O)c1ccc(NC(=O)c2ccc(-c3nc4cc(Cl)c(Cl)cc4[nH]3)cc2)c(C(=O)O)c1)c1ccc(Cl)cc1` (stereo not shown) [Example 133]: the IC50 is 1.9 µM.

As to `O=C(Nc1ccc(Cl)cc1F)c1ccc(NC(=O)c2ccc(-c3nc4cc(Cl)c(Cl)cc4[nH]3)cc2)c(C(=O)O)c1` [Example 51, 5-(4-Chloro-2-fluorophenyl-carbamoyl)-2-(4-(5,6-dichloro-1H-benzo[d]-imidazol-2-yl)benzamido)-benzoic acid], the IC50 turned out to be 0.5 µM. In the case of `O=C(NCc1ccc(Cl)s1)c1ccc(C(=O)O)c(NC(=O)c2sc3ccccc3c2Cl)c1` [Example 90], the IC50 is 4.9 µM.

As for `O=C(Nc1cc(NC(=O)c2sc3ccccc3c2Cl)ccc1C(=O)O)c1ccc(Cl)cc1` [Example 277], the IC50 is 3.5 µM.

On to `O=C(Nc1ccc(C(=O)O)c(NC(=O)c2ccc(-c3ccccc3)s2)c1)c1ccc(Cl)s1` [Example 275], for which the IC50 worked out at 3 µM. For the compound `O=C(NC12CC3CC(CC(C3)C1)C2)c1ccc(C(=O)O)c(NC(=O)c2sc3ccccc3c2Cl)c1` [Example 33, 2-(3-Chlorobenzo[b]-thiophene-2-carboxamido)-4-(adamantylcarbamoyl)-benzoic acid], the IC50 came out at 4.5 µM. In the case of `O=C(O)c1ccc(CN2CC(c3ccc(Cl)cc3)OC2=O)cc1NC(=O)c1sc2ccccc2c1Cl` (stereo not shown) [Example 301], the IC50 stood at 8.7 µM. As for `O=C(Nc1nc2ccc(Cl)cc2s1)c1ccc(C(=O)O)c(NC(=O)c2sc3ccccc3c2Cl)c1` [Example 87, 2-(3-Chlorobenzo[b]-thiophene-2-carboxamido)-4-(6-chlorobenzo[d]thiazol-2-yl-carbamoyl)benzoic acid], the IC50 turned out to be 4.3 µM.

For `CC(C)CCN(C)C(=O)c1ccc(NC(=O)c2ccc(-c3nc4cc(Cl)c(Cl)cc4[nH]3)cc2)c(C(=O)O)c1` [Example 43, 2-(4-(5,6-Dichloro-1H-benzo[d]imidazol-2-yl)-benzamido)-5-(N-isopentyl-N-methylcarbamoyl)benzoic acid], the IC50 worked out at 3.9 µM. For the compound `O=C(O)c1ccc(-c2cn(Cc3ccccc3)nn2)cc1NC(=O)c1sc2ccccc2c1Cl` [Example 258], the IC50 worked out at 9.4 µM.

Regarding `O=C(Nc1ccccc1F)c1ccc(NC(=O)c2ccc(-c3nc4cc(Cl)c(Cl)cc4[nH]3)cc2)c(C(=O)O)c1` [Example 48, 2-(4-(5,6-Dichloro-1H-benzo[d]imidazol-2-yl)-benzamido)-5-(2-fluoro-phenylcarbamoyl)benzoic acid], the IC50 was found to be 3.4 µM.

As to `O=C(O)c1cc(C(=O)N2CCC(c3ccc(F)cc3)CC2)ccc1NC(=O)c1sc2ccccc2c1Cl` [Example 113], the half-inhibitory concentration (IC50) was 2.7 µM. Consider `O=C(Nc1ccc(Cl)cc1)Nc1ccc(C(=O)O)c(NC(=O)c2sc3ccccc3c2Cl)c1` [Example 276], for which the IC50 turned out to be 6.3 µM. As to `O=C(N[C@@H]1C[C@H]2CC[C@@H]1C2)c1ccc(C(=O)O)c(NC(=O)c2sc3ccccc3c2Cl)c1` [Example 34, 4-((1R,2R,4S)-Bicyclo[2.2.1]-heptan-2-ylcarbamoyl)-2-(3-chlorobenzo[b]thiophene-2-carboxamido)benzoic acid], the IC50 came out at 14.1 µM.

Consider `CC(C)(C)Oc1ccc(NC(=O)c2ccc(C(=O)O)c(NC(=O)c3sc4ccccc4c3Cl)c2)cc1` [Example 78], for which the IC50 stood at 19.2 µM.
